The values that follow come from patent US20240254119A1 (THIRD HARMONIC BIO, INC., priority 2022, published 2024).

For one data set, the target named is T1, wtKIT (Homo sapiens, UniProt P10721).
T1 construct: 1888289AM in the reaction mixtures
Description: Caliper biochemical assay, wtKIT. To be noted: Table 6, read-out: KIT Biochemical IC50 avg. The procedure, abridged:
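Mobility-shift read-out: after EDTA stop, fluorescent peptide substrate and product resolved electrophoretically on LabChip 3000. Reaction ran 3 h at 25° C with 400 μM ATP, Mn^2+ cofactor, 5.0 nM wtKIT, 1 μM FAM-peptide, pH 7.5 HEPES buffer; no-enzyme wells defined full inhibition.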

The target of a further data set is T2, CSF-1R (Homo sapiens, UniProt P07333).
T2 construct: purchased Invitrogen PV3249 (lot 662393N)
T2 sequence (P07333 20-972): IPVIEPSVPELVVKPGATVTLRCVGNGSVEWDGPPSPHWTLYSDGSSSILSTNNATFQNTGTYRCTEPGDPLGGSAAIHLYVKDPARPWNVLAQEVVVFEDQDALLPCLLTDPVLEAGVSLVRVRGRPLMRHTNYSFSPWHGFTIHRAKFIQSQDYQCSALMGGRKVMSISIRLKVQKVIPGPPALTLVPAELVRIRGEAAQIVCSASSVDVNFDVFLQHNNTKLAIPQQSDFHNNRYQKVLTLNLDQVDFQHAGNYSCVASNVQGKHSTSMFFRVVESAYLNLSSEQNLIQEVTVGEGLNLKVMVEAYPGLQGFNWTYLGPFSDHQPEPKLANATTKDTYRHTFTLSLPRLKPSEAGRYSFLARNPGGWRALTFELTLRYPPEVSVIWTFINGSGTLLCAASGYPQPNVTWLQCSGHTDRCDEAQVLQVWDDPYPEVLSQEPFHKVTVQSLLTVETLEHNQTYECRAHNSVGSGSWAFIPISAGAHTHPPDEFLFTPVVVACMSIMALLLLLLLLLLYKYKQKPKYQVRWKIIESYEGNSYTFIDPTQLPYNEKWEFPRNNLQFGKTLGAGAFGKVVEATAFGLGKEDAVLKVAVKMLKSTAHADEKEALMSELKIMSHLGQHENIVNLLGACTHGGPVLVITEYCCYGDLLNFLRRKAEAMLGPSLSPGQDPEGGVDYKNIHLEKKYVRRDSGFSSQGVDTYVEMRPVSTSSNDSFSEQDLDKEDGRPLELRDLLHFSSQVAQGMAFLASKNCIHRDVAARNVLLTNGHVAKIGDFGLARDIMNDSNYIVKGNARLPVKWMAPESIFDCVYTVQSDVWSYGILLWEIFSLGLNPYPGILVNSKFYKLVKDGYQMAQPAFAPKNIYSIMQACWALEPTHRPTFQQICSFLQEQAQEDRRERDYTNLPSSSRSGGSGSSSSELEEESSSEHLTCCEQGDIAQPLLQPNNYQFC
Description: Caliper biochemical assay, CSF-1R. The following applies: Table 6. The procedure, abridged:
(§1)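 Mobility-shift readout: after EDTA quench, fluorescent peptide and product are resolved electrophoretically on a LabChip and measured by fluorescence. Reactions contain enzyme, carboxyfluorescein peptide, ATP, Mn^2+ and compound, run 3 h at 25° C; 100% inhibition control lacks enzyme.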

Data set [1] concerns the target T3, BCRP (BCRP-MDCKII monolayer) (Homo sapiens, UniProt Q9UNQ0).
T3 construct: host or cells: MDCKII (canine kidney) cells
T3 sequence (Q9UNQ0 1-655): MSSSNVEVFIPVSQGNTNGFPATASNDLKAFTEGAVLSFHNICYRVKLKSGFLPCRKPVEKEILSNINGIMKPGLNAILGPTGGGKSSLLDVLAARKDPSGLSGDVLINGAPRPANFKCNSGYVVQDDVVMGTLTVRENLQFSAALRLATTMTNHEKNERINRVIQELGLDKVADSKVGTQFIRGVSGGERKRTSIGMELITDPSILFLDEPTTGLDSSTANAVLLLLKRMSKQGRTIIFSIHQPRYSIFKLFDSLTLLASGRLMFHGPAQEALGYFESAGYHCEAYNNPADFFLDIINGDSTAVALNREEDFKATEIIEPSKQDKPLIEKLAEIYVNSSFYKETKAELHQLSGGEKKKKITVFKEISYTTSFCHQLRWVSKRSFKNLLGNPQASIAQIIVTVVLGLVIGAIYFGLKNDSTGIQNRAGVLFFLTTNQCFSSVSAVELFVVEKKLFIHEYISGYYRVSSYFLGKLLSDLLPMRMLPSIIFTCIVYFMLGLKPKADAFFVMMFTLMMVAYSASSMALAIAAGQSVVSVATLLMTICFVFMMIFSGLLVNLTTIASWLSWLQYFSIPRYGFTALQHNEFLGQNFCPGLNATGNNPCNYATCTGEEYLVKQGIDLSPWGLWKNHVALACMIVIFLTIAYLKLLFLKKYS
Description: MDCKII-BCRP bidirectional transport assay. It is filed as in vitro ADME. The following applies: for MDCK-BCRP: Papp A-B: apical to basolateral. The procedure, abridged:
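Efflux ratios were derived from Papp values, alongside recovery, with compounds quantified by LC-MS/MS. Both directions were tested in duplicate across BCRP-MDCKII monolayers used on days 12–15. Incubation ran 120 min at 37° C, 5% CO2, after a 15 min preincubation in assay buffer.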

For a further data set, the target named is T4, PDGFRα (Homo sapiens, UniProt P16234).
T4 construct: purchased Millipore 14-467 (lot 26321_ACTI)
T4 sequence (P16234 24-1089): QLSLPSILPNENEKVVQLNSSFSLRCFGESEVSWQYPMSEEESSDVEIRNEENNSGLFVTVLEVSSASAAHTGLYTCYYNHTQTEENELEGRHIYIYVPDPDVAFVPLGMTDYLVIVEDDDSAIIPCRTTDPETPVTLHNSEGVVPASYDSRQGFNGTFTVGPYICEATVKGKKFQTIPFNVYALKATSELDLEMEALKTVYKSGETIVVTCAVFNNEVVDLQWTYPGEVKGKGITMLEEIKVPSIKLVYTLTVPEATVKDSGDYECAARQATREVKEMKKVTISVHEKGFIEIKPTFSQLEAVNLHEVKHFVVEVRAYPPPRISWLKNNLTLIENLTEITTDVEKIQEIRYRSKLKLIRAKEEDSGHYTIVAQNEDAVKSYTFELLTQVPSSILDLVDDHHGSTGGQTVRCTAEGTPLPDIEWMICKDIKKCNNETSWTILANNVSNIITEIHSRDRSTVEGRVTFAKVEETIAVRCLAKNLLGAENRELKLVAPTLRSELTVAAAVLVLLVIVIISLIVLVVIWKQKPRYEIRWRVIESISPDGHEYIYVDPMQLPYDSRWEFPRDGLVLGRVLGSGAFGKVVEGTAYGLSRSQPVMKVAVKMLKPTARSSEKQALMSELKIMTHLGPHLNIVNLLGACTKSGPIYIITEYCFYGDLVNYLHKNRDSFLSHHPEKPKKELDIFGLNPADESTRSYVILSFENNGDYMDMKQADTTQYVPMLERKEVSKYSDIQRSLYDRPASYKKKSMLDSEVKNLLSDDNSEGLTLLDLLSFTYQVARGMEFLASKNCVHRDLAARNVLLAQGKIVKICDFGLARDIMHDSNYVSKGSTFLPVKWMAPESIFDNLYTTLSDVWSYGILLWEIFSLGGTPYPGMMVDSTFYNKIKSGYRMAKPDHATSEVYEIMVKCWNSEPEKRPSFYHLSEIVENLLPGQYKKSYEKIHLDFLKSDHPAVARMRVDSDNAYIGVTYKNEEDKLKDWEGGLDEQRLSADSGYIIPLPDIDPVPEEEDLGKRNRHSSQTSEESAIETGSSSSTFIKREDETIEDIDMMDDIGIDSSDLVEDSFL
Description: Caliper biochemical assay, PDGFRα. The following applies: Table 6. The procedure, abridged:
as §1

Another data set in a line: Kinetic solubility assay. The following applies: kinetic solubility, 50 mM PB (pH 7.4), shaken 24 hours at RT. It is filed as physicochemical. The procedure, abridged:
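Concentration in the filtrate was determined by UPLC-UV or HPLC-UV with a standard curve. Before that, compound (10 mM DMSO stock) in 50 mM PB at pH 7.4 was agitated 24 h at room temperature, then PTFE-filtered with centrifugation.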

T1 sequence (P10721 26-976): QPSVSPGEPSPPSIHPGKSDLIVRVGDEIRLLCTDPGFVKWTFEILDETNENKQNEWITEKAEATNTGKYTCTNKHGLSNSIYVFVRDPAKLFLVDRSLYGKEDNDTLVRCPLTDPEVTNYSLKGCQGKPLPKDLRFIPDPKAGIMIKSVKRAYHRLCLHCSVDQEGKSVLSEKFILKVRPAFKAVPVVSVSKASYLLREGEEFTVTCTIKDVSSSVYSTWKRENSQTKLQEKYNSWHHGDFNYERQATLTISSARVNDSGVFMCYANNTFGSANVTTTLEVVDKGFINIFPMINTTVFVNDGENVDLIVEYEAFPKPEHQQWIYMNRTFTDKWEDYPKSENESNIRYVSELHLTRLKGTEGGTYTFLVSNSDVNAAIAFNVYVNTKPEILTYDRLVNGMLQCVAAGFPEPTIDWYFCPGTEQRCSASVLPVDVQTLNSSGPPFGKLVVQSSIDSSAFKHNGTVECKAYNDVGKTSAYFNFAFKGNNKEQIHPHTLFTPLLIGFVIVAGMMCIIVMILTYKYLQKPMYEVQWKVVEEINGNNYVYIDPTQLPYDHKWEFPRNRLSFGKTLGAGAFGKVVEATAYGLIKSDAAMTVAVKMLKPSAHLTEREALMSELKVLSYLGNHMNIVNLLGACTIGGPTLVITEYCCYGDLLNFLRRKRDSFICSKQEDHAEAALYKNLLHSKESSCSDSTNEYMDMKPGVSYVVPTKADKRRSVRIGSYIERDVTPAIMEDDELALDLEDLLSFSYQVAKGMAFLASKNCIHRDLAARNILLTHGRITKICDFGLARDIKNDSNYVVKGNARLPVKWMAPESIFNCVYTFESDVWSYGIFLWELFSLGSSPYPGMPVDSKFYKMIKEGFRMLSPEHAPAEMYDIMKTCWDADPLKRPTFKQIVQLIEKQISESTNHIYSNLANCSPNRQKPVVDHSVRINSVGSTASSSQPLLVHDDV

What is called IC50 is the concentration that inhibits the measured activity by half. Consider `Cc1ccc(-c2noc(C(C)O)n2)cc1NC(=O)c1cnc2ccccn12` (racemic) [Compound I-364], for which the figures for the IC50 at wtKIT, at CSF-1R and at PDGFRα were 50 to 500 nM, at most 50 nM and 5 to 30 µM, respectively. Moreover, the “MDCK-BCRP: Efflux Ratio” value in data set [1] was 9.18. The “MDCK-BCRP: Papp A-B” value in data set [1] was 2.19 10^−6 cm/s. Further, in “Kinetic solubility assay”, the “Solubility (μM)” value is recorded as “* (a solubility greater than 50 μM)”.

Regarding `Cc1cc(C)cc(Nc2ccc3ncc(C(=O)Nc4cc(-c5noc([C@H]6C[C@@H]6F)n5)ccc4C)n3c2)c1` [Compound I-299], the IC50 was at most 50 nM on wtKIT, at most 50 nM at CSF-1R and 0.05 to 0.5 µM at PDGFRα. Besides, in data set [1], the “MDCK-BCRP: Efflux Ratio” value came out at 13.7. The “MDCK-BCRP: Papp A-B” value in data set [1] was 0.01 10^−6 cm/s. Further, in the data set “Kinetic solubility assay”, the “Solubility (μM)” value was “**** (a solubility less than or equal to 2 μM)”.

As to `Cc1ccc(-c2noc([C@H]3CCC(=O)N3)n2)cc1NC(=O)c1cnc2ccccn12` (racemic) [Compound I-327], the values for the IC50 on wtKIT, on CSF-1R and on PDGFRα were 50 to 500 nM, at most 50 nM and 5 to 30 µM, respectively. In addition, the “MDCK-BCRP: Efflux Ratio” value in data set [1] is 73.2. Further, the “MDCK-BCRP: Papp A-B” value in data set [1] was 0.28 10^−6 cm/s. In the data set “Kinetic solubility assay”, the “Solubility (μM)” value was “* (a solubility greater than 50 μM)”.

In the case of `COC(=O)N1CC(c2nc(-c3ccc(C(F)F)c(NC(=O)c4cnc5ccccn45)c3)no2)C1` [Compound I-225], the IC50 at wtKIT was at most 50 nM; on CSF-1R it was 50 to 500 nM; against PDGFRα, 5 to 30 µM. The “MDCK-BCRP: Efflux Ratio” value in data set [1] is recorded as 3.27. Moreover, the “MDCK-BCRP: Papp A-B” value in data set [1] is given as 11.2 10^−6 cm/s. In addition, the “Solubility (μM)” value in “Kinetic solubility assay” was “** (a solubility greater than 10 μM and less than or equal to 50 μM)”.

As to `Cc1ccc(-c2noc([C@H]3C[C@@H]3F)n2)cc1NC(=O)c1cnc2cc(OC(C)C)ccn12` [Compound I-88], the IC50 on wtKIT is at most 50 nM; at CSF-1R, at most 50 nM; against PDGFRα, 0.05 to 0.5 µM. Moreover, in data set [1], the “MDCK-BCRP: Efflux Ratio” value is 0.89. The “MDCK-BCRP: Papp A-B” value in data set [1] is listed as 29 10^−6 cm/s. Also, in the data set “Kinetic solubility assay”, the “Solubility (μM)” value is listed as “**** (a solubility less than or equal to 2 μM)”.

Turning to `Cc1ccc(-c2noc(CC(C)O)n2)cc1NC(=O)c1cnc2ccccn12` (racemic) [Compound I-363], the IC50 at wtKIT was at most 50 nM; on CSF-1R, 50 to 500 nM; at PDGFRα it was 0.5 to 5 µM. Also, the “MDCK-BCRP: Efflux Ratio” value in data set [1] is 5.58. In data set [1], the “MDCK-BCRP: Papp A-B” value is given as 3.24 10^−6 cm/s. In addition, the “Solubility (μM)” value in “Kinetic solubility assay” was “** (a solubility greater than 10 μM and less than or equal to 50 μM)”.

For the compound `Cc1ccc(-c2noc(CCO)n2)cc1NC(=O)c1cnc2ccccn12` [Compound I-306], the IC50 on wtKIT is at most 50 nM; on CSF-1R, 50 to 500 nM; on PDGFRα, 5 to 30 µM. The “MDCK-BCRP: Efflux Ratio” value in data set [1] is 23.2. The “MDCK-BCRP: Papp A-B” value in data set [1] is listed as 1.46 10^−6 cm/s. Also, the “Solubility (μM)” value in “Kinetic solubility assay” is reported as “* (a solubility greater than 50 μM)”.

Turning to `Cc1ccc(-c2noc(C3CCN3)n2)cc1NC(=O)c1cnc2ccccn12` (racemic) [Compound I-394], the values for the IC50 at wtKIT, against CSF-1R and on PDGFRα were at most 50 nM, 50 to 500 nM and 5 to 30 µM, respectively. Moreover, in data set [1], the “MDCK-BCRP: Efflux Ratio” value worked out at 23.2. In addition, the “MDCK-BCRP: Papp A-B” value in data set [1] is on record as 1.42 10^−6 cm/s. The “Solubility (μM)” value in the data set “Kinetic solubility assay” was “* (a solubility greater than 50 μM)”.

Consider `Cc1ccc(-c2noc([C@H]3C[C@@H]3F)n2)cc1NC(=O)c1cnc2ccc(C#N)cn12` [Compound I-384], for which the IC50 at wtKIT is at most 50 nM; against CSF-1R, at most 50 nM; on PDGFRα, 5 to 30 µM. Moreover, the “MDCK-BCRP: Efflux Ratio” value in data set [1] came to 12.9. The “MDCK-BCRP: Papp A-B” value in data set [1] was 0.59 10^−6 cm/s. Also, in “Kinetic solubility assay”, the “Solubility (μM)” value is “**** (a solubility less than or equal to 2 μM)”.
